From article PMC9000801, “Bioactivities and Mode of Actions of Dibutyl Phthalates and Nocardamine from Streptomyces sp. H11809” (Molecules, 2022) come the findings set out here.

The test has as its target T1, human GSK-3β (Hs GSK-3β) (Homo sapiens, UniProt P49841).
T1 construct: gene GSK3B
Briefly: Kinase-Glo Plus luminescent kinase assay with recombinant enzyme; Michaelis-Menten and Lineweaver-Burk kinetics. Type of test: biochemical.

Broadly, the IC50 is the concentration that inhibits the measured activity by half.

T1 sequence (P49841 whole entry): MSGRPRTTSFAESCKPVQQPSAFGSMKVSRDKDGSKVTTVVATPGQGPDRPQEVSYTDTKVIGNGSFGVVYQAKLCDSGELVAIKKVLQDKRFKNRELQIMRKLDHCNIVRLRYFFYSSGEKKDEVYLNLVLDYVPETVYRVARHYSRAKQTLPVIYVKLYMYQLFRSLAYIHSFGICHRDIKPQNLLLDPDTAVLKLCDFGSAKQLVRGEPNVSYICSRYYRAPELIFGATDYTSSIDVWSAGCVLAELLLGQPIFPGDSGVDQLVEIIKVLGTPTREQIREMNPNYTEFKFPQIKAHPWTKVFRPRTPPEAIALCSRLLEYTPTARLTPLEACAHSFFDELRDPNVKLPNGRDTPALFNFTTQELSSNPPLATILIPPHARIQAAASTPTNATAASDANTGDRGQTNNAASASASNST

With `CCCCOC(=O)c1ccccc1C(=O)OCCCC` [DBP, dibutyl phthalate], the IC50 is 2000 nM.
